Columns and labels:
PD-1/PD-L1 = PD-1/PD-L1 (Homo sapiens, UniProt Q9NZQ7); assay: PD-1/PD-L1 biochemical protein-protein interaction assay (ALPHA); assay type: binding; conditions: 0.3 nM His tagged PD-L1, 2.5 nM biotinylated Fc-PD-1, 60 minutes at 25° C., read-out: IC50 PD-L1-PD-1 Alpha IC50-mono PD-L1-fcP-D1
Protocol: Biological Activity PD-1/PD-L1 & CTLA/CD80 Biochemical Protein-Protein Interaction Assay
Compounds were tested in biochemical protein-protein interaction assays to determine if they can specifically block the interaction between the extracellular domains of PD-1/PD-L1 or CTLA/CD80. Binding of the protein pairs is measured using a bead based Amplified Luminescent Proximity Homogeneous Assay (ALPHA) platform. Binding of each protein pair results in proximity of the donor and acceptor beads which leads to an increase in ALPHA signal. Disruption of the protein-protein interaction with a test compound results in a decrease in ALPHA signal. Assays are performed in 25 mM Hepes (pH 7.4), 150 mM NaCl, 3.4 mM EDTA, 0.005% Tween 20, and 0.01% BSA. Final protein concentration in the assays were 0.3 nM (His tagged PD-L1), 2.5 nM (biotinylated Fc-PD-1), 1 nM (His tagged CTLA4) and 1 nM (biotinylated CD80). After an assay reaction time of 60 minutes at 25° C., binding was measured with addition of 20 μg/mL ALPHA assay acceptor beads (anti-His coated) and […] ALPHA assay donor beads (streptavidin coated). IC50 values were calculated from the fit of the dose-response curves to a four-parameter equation. Representative data are shown below in Table 1.

PD-1/PD-L1 interaction = target: T1, PD-1/PD-L1 interaction (Homo sapiens, UniProt Q9NZQ7); assay: PD-1/PD-L1 NFAT reporter co-culture assay; assay type: cell-based; conditions: Jurkat PD-1 NFAT-luciferase cells co-cultured with aAPC-PD-L1 CHO cells, 6 hrs at 37° C.; read-out: EC50 NFAT Luciferase
T1 construct: expressed in transfected cells; host or cells: CHO cells (aAPC-PD-L1) co-cultured with Jurkat cells overexpressing PD-1 and an NFAT-luciferase reporter
Method in brief: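 Compounds are scored by restoration of NFAT-luciferase signal in PD-1-expressing Jurkat cells cultured 6 h at 37 °C on CHO cells presenting anti-CD3 and PD-L1; EC50 values derive from four-parameter curve fitting.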

T1 sequence (Q9NZQ7 19-290): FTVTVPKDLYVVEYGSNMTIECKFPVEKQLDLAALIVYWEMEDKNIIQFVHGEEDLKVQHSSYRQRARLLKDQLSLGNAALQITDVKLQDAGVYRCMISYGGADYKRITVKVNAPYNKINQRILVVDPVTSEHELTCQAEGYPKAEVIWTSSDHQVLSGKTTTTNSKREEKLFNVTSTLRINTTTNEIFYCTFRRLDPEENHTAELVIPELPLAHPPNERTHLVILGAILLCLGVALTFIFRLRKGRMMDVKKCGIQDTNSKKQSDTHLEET
Chain of PD-1/PD-L1 (Q9NZQ7 19-238 limits assumed): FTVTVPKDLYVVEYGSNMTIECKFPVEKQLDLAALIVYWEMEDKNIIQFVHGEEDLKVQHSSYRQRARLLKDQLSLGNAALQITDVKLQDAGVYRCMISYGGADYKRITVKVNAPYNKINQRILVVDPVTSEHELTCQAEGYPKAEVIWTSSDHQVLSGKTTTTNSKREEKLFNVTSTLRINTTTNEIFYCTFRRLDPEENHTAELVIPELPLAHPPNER

SMILES | IC50 (PD-1/PD-L1) [nM] | EC50 (PD-1/PD-L1 interaction) [nM]
COc1cc(C(=O)N2CCc3c(-c4cccc5c4CCN5C(=O)c4ccc(CNC[C@@H](O)CC(=O)O)c(OC)c4)cccc32)ccc1CNC[C@@H](O)CC(=O)O [Example 180, (3S,3′S)-4,4′-(((([4,4′-biindoline]-1,1′-dicarbonyl)bis(2-methoxy-4,1-phenylene))bis(methylene))bis(azanediyl))bis(3-hydroxybutanoic acid)] | 4.6 | 24800
Cc1c(COc2cc(OCc3cncc(C#N)c3)c(CNCCO)cc2Cl)cccc1-c1cccc(COc2cc(OCc3ccc(F)c(C#N)c3)c(CNCCO)cc2Cl)c1C [Example 200, 5-((4-Chloro-5-((3′-((2-chloro-5-((3-cyano-4-fluorobenzyl)oxy)-4-(((2-hydroxyethyl)amino)methyl)phenoxy)methyl)-2,2′-dimethyl-[1,1′-biphenyl]-3-yl)methoxy)-2-(((2-hydroxyethyl)amino)methyl)phenoxy)methyl)nicotinonitrile] | 138 | 893
C=Cc1cc(CNCCO)c(OCc2cncc(C#N)c2)cc1OCc1cccc(-c2cccc(COc3cc(OCc4cncc(C#N)c4)c(CNCCO)cc3C=C)c2C)c1C [Example 36, 5,5′-((((((2,2′-dimethyl-[1,1′-biphenyl]-3,3′-diyl)bis(methylene))bis(oxy))bis(6-(((2-hydroxyethyl)amino)methyl)-4-vinyl-3,1-phenylene))bis(oxy))bis(methylene))dinicotinonitrile] | 21.6 | 1070
Cc1c(COc2cc(OCc3cncc(C#N)c3)c(CNCC[C@H](O)C(=O)O)cc2Cl)cccc1-c1cccc(COc2cc(OCc3cncc(C#N)c3)c(CNCC[C@H](O)C(=O)O)cc2Cl)c1C [Example 215, (2S,2′S)-4,4′-((((((2,2′-dimethyl-[1,1′-biphenyl]-3,3′-diyl)bis(methylene))bis(oxy))bis(5-chloro-2-((5-cyanopyridin-3-yl)methoxy)-4,1-phenylene))bis(methylene))bis(azanediyl))bis(2-hydroxybutanoic acid)] | 1.26 | 413
COc1nc(OCc2cccc(-c3cccc(COc4cc(OCc5cncc(C#N)c5)c(CNC[C@@H](O)CC(=O)O)cc4Cl)c3C)c2C)ccc1CNCCO [Example 202, (S)-4-((5-Chloro-2-((5-cyanopyridin-3-yl)methoxy)-4-((3′-(((5-(((2-hydroxyethyl)amino)methyl)-6-methoxypyridin-2-yl)oxy)methyl)-2,2′-dimethyl-[1,1′-biphenyl]-3-yl)methoxy)benzyl)amino)-3-hydroxybutanoic acid] | 3.2 | 1920
COc1nc(OCc2cccc(-c3cccc(COc4ccc(CNCCO)c(OC)n4)c3Cl)c2Cl)ccc1CNCCO [Example 186, 2,2′-((((((2,2′-Dichloro-[1,1′-biphenyl]-3,3′-diyl)bis(methylene))bis(oxy))bis(2-methoxypyridine-6,3-diyl))bis(methylene))bis(azanediyl))bis(ethan-1-ol)] | 18.8 | 1510
COc1nc(OCc2cccc(-c3cccc(COc4ccc(CNC[C@@H](O)CC(=O)O)c(OC)n4)c3C)c2C)ccc1CNC[C@@H](O)CC(=O)O [Example 19, (3S,3′S)-4,4′-((((((2,2′-dimethyl-[1,1′-biphenyl]-3,3′-diyl)bis(methylene))bis(oxy))bis(2-methoxypyridine-6,3-diyl))bis(methylene))bis(azanediyl))bis(3-hydroxybutanoic acid)] | 1.1 | 5140
Cc1c(COc2nc(OCC(F)(F)F)c(CNC[C@@H](O)CC(=O)O)cc2Br)cccc1-c1cccc(COc2nc(OCC(F)(F)F)c(CNC[C@@H](O)CC(=O)O)cc2Br)c1C [Example 154, (3S,3′S)-4,4′-((((((2,2′-dimethyl-[1,1′-biphenyl]-3,3′-diyl)bis(methylene))bis(oxy))bis(5-bromo-2-(2,2,2-trifluoroethoxy)pyridine-6,3-diyl))bis(methylene))bis(azanediyl))bis(3-hydroxybutanoic acid)] | 3.8 | ≥ 50000
CC(=O)NCCNCc1ccc(OCc2cccc(-c3cccc(COc4ccc(CNCCNC(C)=O)c(-c5cncc(C#N)c5)c4)c3C)c2C)cc1-c1cncc(C#N)c1 [Example 250, N,N′-(((((((2,2′-dimethyl-[1,1′-biphenyl]-3,3′-diyl)bis(methylene))bis(oxy))bis(2-(5-cyanopyridin-3-yl)-4,1-phenylene))bis(methylene))bis(azanediyl))bis(ethane-2,1-diyl))diacetamide] | 63.6 | 7490

These reach a lower IC50 (PD-1/PD-L1). Values come first.

IC50 (PD-1/PD-L1) [nM] | EC50 (PD-1/PD-L1 interaction) [nM] | SMILES
1 | 1320 | Cc1c(COc2cc(O)c(CNC[C@@H](O)CC(=O)O)cc2Cl)cccc1-c1cccc(COc2cc(OCc3cncc(C#N)c3)c(CNC[C@@H](O)CC(=O)O)cc2Cl)c1C [Example 67, (S)-4-((4-((3′-((4-((((S)-3-carboxy-2-hydroxypropyl)amino)methyl)-2-chloro-5-((5-cyanopyridin-3-yl)methoxy)phenoxy)methyl)-2,2′-dimethyl-[1,1′-biphenyl]-3-yl)methoxy)-5-chloro-2-hydroxybenzyl)amino)-3-hydroxybutanoic acid]
1 | 392 | Cc1c(COc2nc(OCc3cncs3)c(CNC[C@@H](O)CC(=O)O)cc2Br)cccc1-c1cccc(COc2nc(OCc3cncs3)c(CNC[C@@H](O)CC(=O)O)cc2Br)c1C [Example 138, (3S,3′S)-4,4′-((((((2,2′-dimethyl-[1,1′-biphenyl]-3,3′-diyl)bis(methylene))bis(oxy))bis(5-bromo-2-(thiazol-5-ylmethoxy)pyridine-6,3-diyl))bis(methylene))bis(azanediyl))bis(3-hydroxybutanoic acid)]
0.346 | 770 | Cc1c(COc2cc(OCc3cncc(C#N)c3)c(CN[C@@](C)(CO)C(=O)O)cc2Cl)cccc1-c1cccc(-c2ccc3c(c2)OCC3N(C)C)c1C (stereo partly drawn) [Example 376, (2S)-2-((5-chloro-2-((5-cyanopyridin-3-yl)methoxy)-4-((3′-(3-(dimethylamino)-2,3-dihydrobenzofuran-6-yl)-2,2′-dimethyl-[1,1′-biphenyl]-3-yl)methoxy)benzyl)amino)-3-hydroxy-2-methylpropanoic acid]
0.3 | 822 | Cc1c(COc2cc(OCc3cncc(C#N)c3)c(CN3C[C@@H](O)C[C@H]3C(=O)O)cc2Cl)cccc1-c1cccc(COc2cc(OCc3cncc(C#N)c3)c(CN3C[C@@H](O)C[C@H]3C(=O)O)cc2Cl)c1C [Example 58, (2S,2′S,4S,4'S)-1,1′-(((((2,2′-dimethyl-[1,1′-biphenyl]-3,3′-diyl)bis(methylene))bis(oxy))bis(5-chloro-2-((5-cyanopyridin-3-yl)methoxy)-4,1-phenylene))bis(methylene))bis(4-hydroxypyrrolidine-2-carboxylic acid)]
0.203 | 95 | Cc1c(COc2nc(OCc3cc(C#N)cc(C#N)c3)c(CNC[C@@H](O)CC(=O)O)cc2Br)cccc1-c1cccc(-c2ccc(OCCNC[C@@H](O)CC(=O)O)cc2)c1C [Example 515]
0.098 | 182 | COC1CN(C2CCc3cc(-c4cccc(-c5cccc(COc6cc(OCc7cncc(C#N)c7)c(CN[C@@](C)(CO)C(=O)O)cc6Cl)c5C)c4C)ccc32)C1 (stereo partly drawn) [Example 585]
0.064 | 709 | Cc1c(COc2cc(OCc3cncc(C#N)c3)c(CNC[C@@H](O)CC(=O)O)cc2Cl)cccc1-c1cccc(-c2ccn3cc(CNC[C@@H](O)CC(=O)O)nc3c2)c1C [Example 397, (S)-4-(((7-(3′-((4-((((S)-3-carboxy-2-hydroxypropyl)amino)methyl)-2-chloro-5-((5-cyanopyridin-3-yl)methoxy)phenoxy)methyl)-2,2′-dimethyl-[1,1′-biphenyl]-3-yl)imidazo[1,2-a]pyridin-2-yl)methyl)amino)-3-hydroxybutanoic acid]
0.051 | 21 | CC(CO)(NCc1cc(Cl)c(O[C@H]2CCc3c(-c4cccc5c4CC[C@@H]5Oc4nc(OCc5cncc(S(C)(=O)=O)c5)c(CNC(C)(CO)C(=O)O)cc4Cl)cccc32)nc1OCc1cncc(S(C)(=O)=O)c1)C(=O)O (stereo partly drawn) [Example 298]
0.051 | 362 | Cc1c(COc2cc(OCc3cncc(C#N)c3)c(CNC[C@@H](O)CC(=O)O)cc2Cl)cccc1-c1cccc(-c2cn(CCCNC[C@@H](O)CC(=O)O)nn2)c1C [Example 387, (S)-4-((3-(4-(3′-((4-((((S)-3-carboxy-2-hydroxypropyl)amino)methyl)-2-chloro-5-((5-cyanopyridin-3-yl)methoxy)phenoxy)methyl)-2,2′-dimethyl-[1,1′-biphenyl]-3-yl)-1H-1,2,3-triazol-1-yl)propyl)amino)-3-hydroxybutanoic acid]

Source: US12590062B2, “PD-1/PD-L1 inhibitors” (Gilead Sciences, Inc., priority 2017, dated 2026)
